From the NIST ThermoML archive (doi:10.1021/je400709f)
Numbers after ± are expanded uncertainties.

Experiment: excess molar enthalpy (molar enthalpy of mixing); xn = mol fraction of the nth substance listed
Conditions: 298.15 K, 101 kPa, Liquid, Calvet calorimetry

CCCCCCCC[n+]1ccn(C)c1.F[B-](F)(F)F [1-methyl-3-octylimidazolium tetrafluoroborate] + CCCCO
Conditions	excess molar enthalpy [kcal/mol]
x1 = 0.191	0.349 ± 0.00813
x1 = 0.195	0.355 ± 0.00813
x1 = 0.2	0.362 ± 0.00837
x1 = 0.204	0.369 ± 0.0086
x1 = 0.209	0.376 ± 0.0086
x1 = 0.214	0.384 ± 0.00884
x1 = 0.219	0.391 ± 0.00884
x1 = 0.223	0.397 ± 0.00884
x1 = 0.228	0.402 ± 0.00884
x1 = 0.233	0.407 ± 0.00908
x1 = 0.238	0.413 ± 0.00908
x1 = 0.243	0.419 ± 0.00932
x1 = 0.248	0.425 ± 0.00932
x1 = 0.254	0.431 ± 0.00956
x1 = 0.259	0.438 ± 0.00956
x1 = 0.266	0.446 ± 0.0098
x1 = 0.272	0.453 ± 0.01
x1 = 0.279	0.461 ± 0.01
x1 = 0.286	0.469 ± 0.0103
x1 = 0.293	0.48 ± 0.0108
x1 = 0.301	0.492 ± 0.011
x1 = 0.309	0.504 ± 0.011
x1 = 0.318	0.516 ± 0.0112
x1 = 0.328	0.528 ± 0.0115
x1 = 0.337	0.541 ± 0.0117
x1 = 0.348	0.554 ± 0.012
x1 = 0.359	0.566 ± 0.0122
x1 = 0.371	0.577 ± 0.0124
x1 = 0.383	0.586 ± 0.0127
x1 = 0.392	0.593 ± 0.0127
x1 = 0.4	0.599 ± 0.0129
x1 = 0.41	0.605 ± 0.0129
x1 = 0.419	0.608 ± 0.0129
x1 = 0.429	0.611 ± 0.0129
x1 = 0.44	0.611 ± 0.0129
x1 = 0.451	0.611 ± 0.0129
x1 = 0.462	0.608 ± 0.0129
x1 = 0.474	0.605 ± 0.0129
x1 = 0.487	0.6 ± 0.0129
x1 = 0.501	0.596 ± 0.0127
x1 = 0.515	0.589 ± 0.0127
x1 = 0.53	0.582 ± 0.0124
x1 = 0.546	0.571 ± 0.0122
x1 = 0.563	0.56 ± 0.012
x1 = 0.582	0.545 ± 0.0117
x1 = 0.601	0.531 ± 0.0115
x1 = 0.622	0.511 ± 0.011
x1 = 0.644	0.49 ± 0.0105
x1 = 0.653	0.482 ± 0.0105
x1 = 0.663	0.474 ± 0.0103
x1 = 0.673	0.464 ± 0.01
x1 = 0.683	0.455 ± 0.01
x1 = 0.693	0.443 ± 0.0098
x1 = 0.704	0.429 ± 0.00956
x1 = 0.715	0.417 ± 0.00908
x1 = 0.727	0.405 ± 0.00884
x1 = 0.739	0.392 ± 0.0086
x1 = 0.751	0.378 ± 0.00837
x1 = 0.764	0.363 ± 0.00813
x1 = 0.777	0.348 ± 0.00789
x1 = 0.79	0.331 ± 0.00741
x1 = 0.804	0.313 ± 0.00717
x1 = 0.819	0.294 ± 0.00693
x1 = 0.834	0.275 ± 0.00645
x1 = 0.85	0.254 ± 0.00598
x1 = 0.866	0.231 ± 0.00574
x1 = 0.883	0.208 ± 0.0055
x1 = 0.9	0.18 ± 0.00502
x1 = 0.919	0.149 ± 0.00478
x1 = 0.938	0.114 ± 0.0043
x1 = 0.958	0.0796 ± 0.00406
x1 = 0.978	0.0411 ± 0.00406

CCCCCCCC[n+]1ccn(C)c1.F[B-](F)(F)F [1-methyl-3-octylimidazolium tetrafluoroborate] + CCCO
Conditions	excess molar enthalpy [kcal/mol]
x1 = 0.136	0.302 ± 0.00741
x1 = 0.138	0.306 ± 0.00741
x1 = 0.141	0.311 ± 0.00741
x1 = 0.144	0.317 ± 0.00789
x1 = 0.146	0.322 ± 0.00789
x1 = 0.149	0.327 ± 0.00789
x1 = 0.152	0.333 ± 0.00789
x1 = 0.156	0.339 ± 0.00813
x1 = 0.159	0.345 ± 0.00813
x1 = 0.163	0.352 ± 0.00837
x1 = 0.166	0.358 ± 0.0086
x1 = 0.169	0.363 ± 0.00837
x1 = 0.173	0.368 ± 0.00837
x1 = 0.176	0.374 ± 0.00884
x1 = 0.179	0.38 ± 0.00884
x1 = 0.183	0.385 ± 0.00884
x1 = 0.187	0.391 ± 0.00908
x1 = 0.19	0.397 ± 0.00932
x1 = 0.194	0.404 ± 0.00908
x1 = 0.199	0.411 ± 0.00932
x1 = 0.203	0.419 ± 0.00956
x1 = 0.208	0.426 ± 0.0098
x1 = 0.212	0.435 ± 0.01
x1 = 0.217	0.443 ± 0.01
x1 = 0.223	0.451 ± 0.01
x1 = 0.228	0.46 ± 0.0103
x1 = 0.234	0.469 ± 0.0105
x1 = 0.24	0.479 ± 0.0108
x1 = 0.247	0.489 ± 0.011
x1 = 0.253	0.5 ± 0.011
x1 = 0.261	0.511 ± 0.0112
x1 = 0.268	0.523 ± 0.0115
x1 = 0.276	0.534 ± 0.0117
x1 = 0.285	0.546 ± 0.012
x1 = 0.29	0.554 ± 0.0122
x1 = 0.296	0.562 ± 0.0122
x1 = 0.302	0.57 ± 0.0124
x1 = 0.309	0.577 ± 0.0124
x1 = 0.315	0.585 ± 0.0127
x1 = 0.322	0.592 ± 0.0129
x1 = 0.329	0.6 ± 0.0129
x1 = 0.337	0.607 ± 0.0131
x1 = 0.345	0.614 ± 0.0131
x1 = 0.353	0.62 ± 0.0134
x1 = 0.362	0.624 ± 0.0134
x1 = 0.371	0.629 ± 0.0134
x1 = 0.381	0.632 ± 0.0134
x1 = 0.391	0.634 ± 0.0136
x1 = 0.401	0.635 ± 0.0136
x1 = 0.413	0.635 ± 0.0136
x1 = 0.425	0.636 ± 0.0136
x1 = 0.437	0.635 ± 0.0136
x1 = 0.451	0.634 ± 0.0136
x1 = 0.465	0.632 ± 0.0134
x1 = 0.48	0.628 ± 0.0134
x1 = 0.496	0.623 ± 0.0134
x1 = 0.513	0.617 ± 0.0131
x1 = 0.532	0.61 ± 0.0131
x1 = 0.552	0.598 ± 0.0129
x1 = 0.56	0.592 ± 0.0127
x1 = 0.569	0.586 ± 0.0127
x1 = 0.578	0.579 ± 0.0124
x1 = 0.587	0.571 ± 0.0122
x1 = 0.596	0.563 ± 0.0122
x1 = 0.606	0.555 ± 0.012
x1 = 0.616	0.545 ± 0.0117
x1 = 0.627	0.535 ± 0.0115
x1 = 0.638	0.525 ± 0.0115
x1 = 0.649	0.513 ± 0.0112
x1 = 0.66	0.501 ± 0.011
x1 = 0.672	0.488 ± 0.0105
x1 = 0.685	0.474 ± 0.0103
x1 = 0.698	0.458 ± 0.01
x1 = 0.711	0.443 ± 0.0098
x1 = 0.725	0.425 ± 0.00932
x1 = 0.74	0.407 ± 0.00908
x1 = 0.755	0.387 ± 0.0086
x1 = 0.771	0.366 ± 0.00837
x1 = 0.787	0.343 ± 0.00789
x1 = 0.804	0.319 ± 0.00741
x1 = 0.822	0.293 ± 0.00693
x1 = 0.841	0.265 ± 0.00645
x1 = 0.86	0.235 ± 0.00598
x1 = 0.881	0.202 ± 0.0055
x1 = 0.902	0.168 ± 0.00478
x1 = 0.925	0.131 ± 0.0043
x1 = 0.949	0.0915 ± 0.00406
x1 = 0.974	0.0476 ± 0.00359
